ChEMBL document CHEMBL3286114, “Dual RXR Agonists and RAR Antagonists Based on the Stilbene Retinoid Scaffold” (ACS Med Chem Lett, 2014)
The source made the active and inactive calls. No cut-off for these calls is given here.

Assays:
Type in all cases: cell-based
[1] = target: T1, Retinoic acid receptor gamma (Mus musculus) (UniProt P18911); assay: Agonist activity at Gal4-fused mouse RAR-gamma transfected in human HeLa cells at 1 uM after 12 hrs by luciferase reporter gene assay
T1 sequence (whole entry): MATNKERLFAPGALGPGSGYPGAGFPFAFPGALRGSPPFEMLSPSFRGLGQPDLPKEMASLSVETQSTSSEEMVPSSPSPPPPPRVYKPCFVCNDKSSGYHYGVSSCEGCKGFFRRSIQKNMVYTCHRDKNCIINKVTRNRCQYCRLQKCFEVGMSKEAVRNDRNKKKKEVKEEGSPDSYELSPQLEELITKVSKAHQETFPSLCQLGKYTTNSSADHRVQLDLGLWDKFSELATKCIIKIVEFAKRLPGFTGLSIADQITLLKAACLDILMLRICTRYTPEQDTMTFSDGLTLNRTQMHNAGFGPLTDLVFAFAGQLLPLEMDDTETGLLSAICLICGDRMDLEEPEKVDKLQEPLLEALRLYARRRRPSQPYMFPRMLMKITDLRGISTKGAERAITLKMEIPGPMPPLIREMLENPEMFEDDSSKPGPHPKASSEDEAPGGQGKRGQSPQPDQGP

[2] = target: T1, Retinoic acid receptor gamma (Mus musculus); assay: Antagonist activity at Gal4-fused mouse RAR-gamma transfected in human HeLa cells after 12 hrs by luciferase reporter gene assay
[3] = target: T2, Retinoic acid receptor RXR-beta (Homo sapiens) (UniProt P28702); assay: Agonist activity at Gal4-fused human RXR-beta transfected in human HeLa cells at 51 nM after 12 hrs by luciferase reporter gene assay relative to control
T2 sequence (whole entry): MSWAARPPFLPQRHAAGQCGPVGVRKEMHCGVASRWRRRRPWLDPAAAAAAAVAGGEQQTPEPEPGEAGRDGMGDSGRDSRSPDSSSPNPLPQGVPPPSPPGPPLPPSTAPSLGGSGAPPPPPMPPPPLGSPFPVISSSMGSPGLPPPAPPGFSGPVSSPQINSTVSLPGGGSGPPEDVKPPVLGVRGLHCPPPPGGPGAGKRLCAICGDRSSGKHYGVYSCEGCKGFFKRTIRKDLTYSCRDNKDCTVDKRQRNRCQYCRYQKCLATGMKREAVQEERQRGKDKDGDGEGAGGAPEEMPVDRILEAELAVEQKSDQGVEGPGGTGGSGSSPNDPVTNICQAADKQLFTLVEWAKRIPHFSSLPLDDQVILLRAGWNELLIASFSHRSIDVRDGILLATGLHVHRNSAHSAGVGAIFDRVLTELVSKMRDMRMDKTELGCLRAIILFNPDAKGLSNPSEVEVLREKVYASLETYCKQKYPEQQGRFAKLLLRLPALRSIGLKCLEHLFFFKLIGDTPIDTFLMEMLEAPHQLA

[4] = target: T3, Retinoic acid receptor beta (Mus musculus) (UniProt P22605); assay: Antagonist activity at Gal4-fused mouse RAR-beta transfected in human HeLa cells after 12 hrs by luciferase reporter gene assay
T3 sequence (whole entry): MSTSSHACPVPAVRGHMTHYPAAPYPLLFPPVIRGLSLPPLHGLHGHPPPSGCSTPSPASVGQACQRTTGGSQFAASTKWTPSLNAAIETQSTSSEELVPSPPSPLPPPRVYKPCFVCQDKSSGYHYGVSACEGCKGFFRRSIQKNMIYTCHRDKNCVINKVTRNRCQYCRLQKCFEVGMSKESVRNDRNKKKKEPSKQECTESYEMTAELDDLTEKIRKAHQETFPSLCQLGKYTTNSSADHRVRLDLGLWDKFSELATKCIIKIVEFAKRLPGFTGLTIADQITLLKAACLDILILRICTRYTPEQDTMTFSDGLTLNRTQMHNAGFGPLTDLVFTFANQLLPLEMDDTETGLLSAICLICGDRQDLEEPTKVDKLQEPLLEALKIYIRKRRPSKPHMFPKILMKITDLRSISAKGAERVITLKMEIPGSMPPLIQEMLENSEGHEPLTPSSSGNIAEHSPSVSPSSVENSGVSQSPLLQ

[5] = target: T2, Retinoic acid receptor RXR-beta (Homo sapiens); assay: Agonist activity at Gal4-fused human RXR-beta transfected in human HeLa cells at 541 nM after 12 hrs by luciferase reporter gene assay relative to control
[6] = target: T2, Retinoic acid receptor RXR-beta (Homo sapiens); assay: Agonist activity at Gal4-fused human RXR-beta transfected in human HeLa cells at 125 nM after 12 hrs by luciferase reporter gene assay relative to control
[7] = target: T4, Retinoic acid receptor alpha (Mus musculus) (UniProt P11416); assay: Antagonist activity at Gal4-fused mouse RAR-alpha transfected in human HeLa cells after 12 hrs by luciferase reporter gene assay
T4 sequence (whole entry): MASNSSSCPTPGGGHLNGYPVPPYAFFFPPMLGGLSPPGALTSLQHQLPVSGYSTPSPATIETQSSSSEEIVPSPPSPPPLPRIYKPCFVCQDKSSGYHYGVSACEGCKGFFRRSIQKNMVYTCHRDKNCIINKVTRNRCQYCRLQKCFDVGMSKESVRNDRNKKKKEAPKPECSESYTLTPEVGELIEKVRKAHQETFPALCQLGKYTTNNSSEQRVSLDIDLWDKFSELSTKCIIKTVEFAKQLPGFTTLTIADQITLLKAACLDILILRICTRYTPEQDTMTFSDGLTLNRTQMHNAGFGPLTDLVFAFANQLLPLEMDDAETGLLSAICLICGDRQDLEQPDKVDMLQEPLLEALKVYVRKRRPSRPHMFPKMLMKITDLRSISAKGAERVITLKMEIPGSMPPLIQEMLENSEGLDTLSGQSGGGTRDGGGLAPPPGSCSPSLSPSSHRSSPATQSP

[8] = target: T4, Retinoic acid receptor alpha (Mus musculus); assay: Agonist activity at Gal4-fused mouse RAR-alpha transfected in human HeLa cells at 1 uM after 12 hrs by luciferase reporter gene assay
[9] = target: T3, Retinoic acid receptor beta (Mus musculus); assay: Agonist activity at Gal4-fused mouse RAR-beta transfected in human HeLa cells at 1 uM after 12 hrs by luciferase reporter gene assay
[10] = target: T2, Retinoic acid receptor RXR-beta (Homo sapiens); assay: Agonist activity at Gal4-fused human RXR-beta transfected in human HeLa cells after 12 hrs by luciferase reporter gene assay
[11] = target: T2, Retinoic acid receptor RXR-beta (Homo sapiens); assay: Agonist activity at Gal4-fused human RXR-beta transfected in human HeLa cells at 875 nM after 12 hrs by luciferase reporter gene assay relative to control
[12] = target: T1, Retinoic acid receptor gamma (Mus musculus); assay: Agonist activity at Gal4-fused mouse RAR-gamma transfected in human HeLa cells at 10 uM after 12 hrs by luciferase reporter gene assay
[13] = target: T4, Retinoic acid receptor alpha (Mus musculus); assay: Agonist activity at Gal4-fused mouse RAR-alpha transfected in human HeLa cells after 12 hrs by luciferase reporter gene assay
[14] = target: T3, Retinoic acid receptor beta (Mus musculus); assay: Agonist activity at Gal4-fused mouse RAR-beta transfected in human HeLa cells at 10 uM after 12 hrs by luciferase reporter gene assay
[15] = target: T3, Retinoic acid receptor beta (Mus musculus); assay: Agonist activity at Gal4-fused mouse RAR-beta transfected in human HeLa cells at >1 uM after 12 hrs by luciferase reporter gene assay

Row | Compound | Activity [1] | Activity [2] | fold change (FC) [3] | Activity [4] | fold change (FC) [5] | fold change (FC) [6] | Activity [7] | Activity [8] | Activity [9] | Activity [10] | fold change (FC) [11] | Activity [12] | Activity [13] | Activity [14] | Activity [15]
1 | O=C(O)c1ccc(/C=C/c2ccc3c(-c4ccccc4)ccc(-c4ccccc4)c3c2)cc1 | inactive | Active | 15 | Active | 15 | 15 | Active | inactive | inactive | Active | 15 | – | – | – | –
2 | O=C(O)c1ccc(/C=C/c2ccc3c(-c4ccccc4)ccc(-c4ccccc4)c3c2)c(Br)c1 | inactive | Active | 15 | Active | 15 | 15 | Active | inactive | inactive | Active | 15 | – | – | – | –
3 | C/C(=C\c1ccc(C(=O)O)cc1)c1ccc2c(c1)C(C)(C)CCC2(C)C | – | – | 15 | – | 15 | 15 | – | – | – | – | 15 | – | – | – | –

Results, then the compound that gave them:

Row | Activity [1] | Activity [2] | fold change (FC) [3] | Activity [4] | fold change (FC) [5] | fold change (FC) [6] | Activity [7] | Activity [8] | Activity [9] | Activity [10] | fold change (FC) [11] | Activity [12] | Activity [13] | Activity [14] | Activity [15] | Compound
4 | – | – | – | – | – | – | – | – | – | – | – | Active | inactive | Active | – | O=C(O)c1ccc(NC(=O)c2ccc3c(-c4ccccc4)ccc(-c4ccccc4)c3c2)c(Cl)c1
5 | inactive | Active | 15 | Active | 15 | 15 | Active | inactive | inactive | Active | 15 | – | – | – | – | O=C(O)c1ccc(/C=C/c2ccc3c(-c4ccccc4)ccc(-c4ccccc4)c3c2)c(F)c1
6 | – | – | – | – | – | – | – | – | – | – | – | Active | inactive | Active | Active | O=C(O)c1ccc(NC(=O)c2ccc3c(-c4ccccc4)ccc(-c4ccccc4)c3c2)cc1
7 | – | – | – | – | – | – | – | – | – | – | – | Active | inactive | Active | – | O=C(O)c1ccc(NC(=O)c2ccc3c(-c4ccccc4)ccc(-c4ccccc4)c3c2)c(F)c1
